Legend:
Assay in all cases: relative viability (nuclei count vs DMSO), 5 days (fraction); higher = more cells survive
Veliparib + Crizotinib = compound: C[C@]1(c2nc3c(C(N)=O)cccc3[nH]2)CCCN1 [Veliparib] + C[C@@H](Oc1cc(-c2cnn(C3CCNCC3)c2)cnc1N)c1c(Cl)ccc(F)c1Cl [Crizotinib] (partner 1 µM)
Procedure, shortened: (§1)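 Cells from lung cancer lines were seeded into 1536-well plates and, one day later, dosed by pin tool. Treatments were either a single drug or a fixed dose of an anchor drug with five library-drug doses (not always all listed) in √10 steps. After 5 days, nuclei were stained in a one-step fixation (final 0.05% Triton X-100, 1% formaldehyde, 1 ug/ml Hoechst) and counted on 4× images, and relative viability is the treated-to-vehicle nuclei ratio, as the median of duplicate plates.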

Veliparib + Navitoclax = compound: C[C@]1(c2nc3c(C(N)=O)cccc3[nH]2)CCCN1 [Veliparib] + CC1(C)CCC(c2ccc(Cl)cc2)=C(CN2CCN(c3ccc(C(=O)NS(=O)(=O)c4ccc(N[C@H](CCN5CCOCC5)CSc5ccccc5)c(S(=O)(=O)C(F)(F)F)c4)cc3)CC2)C1 [Navitoclax] (partner 0.5 µM)
Procedure, shortened: as §1

[1] = compound: COC1=CC=C(C=C1)CN2C=CC3=C2C=C(C=C3)C(=O)NO + Cc1cc(Nc2cc(N3CCN(C)CC3)nc(Sc3ccc(NC(=O)C4CC4)cc3)n2)n[nH]1 [Tozasertib] (partner 0.1 µM)
Procedure, shortened: as §1

Veliparib + Pemetrexed = compound: C[C@]1(c2nc3c(C(N)=O)cccc3[nH]2)CCCN1 [Veliparib] + Nc1nc2[nH]cc(CCc3ccc(C(=O)N[C@@H](CCC(=O)O)C(=O)O)cc3)c2c(=O)[nH]1 [Pemetrexed] (partner 0.2 µM)
Procedure, shortened: as §1

| Cell Line | relative viability (Veliparib + Crizotinib; first compound 0.02 µM) | relative viability (Veliparib + Crizotinib; first compound 0.06325 µM) | relative viability (Veliparib + Crizotinib; first compound 0.2 µM) | relative viability (Veliparib + Crizotinib; first compound 0.6325 µM) | relative viability (Veliparib + Crizotinib; first compound 2 µM) | relative viability (Veliparib + Navitoclax; first compound 0.02 µM) | relative viability (Veliparib + Navitoclax; first compound 0.06325 µM) | relative viability (Veliparib + Navitoclax; first compound 0.2 µM) | relative viability (Veliparib + Navitoclax; first compound 0.6325 µM) | relative viability (Veliparib + Navitoclax; first compound 2 µM) | relative viability ([1]; first compound 0.08 µM) | relative viability ([1]; first compound 0.253 µM) | relative viability ([1]; first compound 0.8 µM) | relative viability ([1]; first compound 2.53 µM) | relative viability ([1]; first compound 8 µM) | relative viability (Veliparib + Pemetrexed; first compound 0.02 µM) | relative viability (Veliparib + Pemetrexed; first compound 0.06325 µM) | relative viability (Veliparib + Pemetrexed; first compound 0.2 µM) | relative viability (Veliparib + Pemetrexed; first compound 0.6325 µM) | relative viability (Veliparib + Pemetrexed; first compound 2 µM) |
| --- | --- | --- | --- | --- | --- | --- | --- | --- | --- | --- | --- | --- | --- | --- | --- | --- | --- | --- | --- | --- |
| 201T | 1.03 | 0.978 | 0.964 | 0.992 | 0.997 | 1.21 | 1.21 | 1.17 | 1.19 | 1.15 | 0.677 | 0.976 | 0.998 | 0.877 | 0.943 | 0.345 | 0.334 | 0.355 | 0.352 | 0.362 |
| NCI-H596 | 1.05 | 0.912 | 1.06 | 0.862 | 0.957 | 1.02 | 0.861 | 1.06 | 0.761 | 0.834 | 1.05 | 0.823 | 0.872 | 0.938 | 0.743 | 0.475 | 0.451 | 0.463 | 0.509 | 0.474 |
| LXF-289 | 0.784 | 0.777 | 0.818 | 0.727 | 0.83 | 0.932 | 0.948 | 0.931 | 0.888 | 0.968 | – | 0.231 | 0.164 | 0.195 | 0.182 | 0.897 | 1.02 | 0.913 | 0.856 | 0.997 |
| NCI-H2087 | 0.729 | 0.722 | 0.831 | 0.806 | 0.61 | 0.883 | 0.821 | 0.849 | 0.863 | 0.952 | 0.253 | 0.293 | 0.246 | 0.294 | 0.234 | 0.715 | 0.601 | 0.639 | 0.622 | 0.635 |
| NCI-H441 | 0.663 | 0.645 | 0.745 | 0.593 | 0.63 | 0.701 | 0.478 | 0.667 | 0.501 | 0.387 | 0.679 | 0.604 | 0.561 | 0.768 | 0.493 | 0.292 | 0.265 | 0.3 | 0.254 | 0.289 |
| NCI-H3122 | 0.247 | 0.297 | 0.26 | 0.268 | 0.304 | 0.982 | 0.998 | 0.998 | 1 | 1.01 | – | 0.327 | 0.397 | 0.352 | 0.382 | 0.194 | 0.203 | 0.19 | 0.211 | 0.2 |

From the supplement of paper PMC10307832
